In the first series the test system is Human lung adenocarcinoma cell line A549. The series can be described thus: In vitro cytotoxicity test of camptothecin payloads (CellTiter-Glo).
Details: not given
The format is cell-based. As to the method:
Human lung adenocarcinoma cell line A549 was used to evaluate the cytotoxicity of small molecule fragment of the present invention. A549 cells were seeded to a 96-well plate at 2000 cells per well.
Turning to `CC[C@@]1(O)C(=O)OCc2c1cc1n(c2=O)Cc2c-1nc1cc(F)c(C)cc1c2CN1CCCC(O)C1` (stereo partly drawn) [Example 17, (4S)-4-ethyl-8-fluoro-4-hydroxy-11-((3-hydroxypiperidin-1-yl)methyl)-9-methyl-1H-pyrano[3′,4′:6,7] indolizino[1,2-b]quinoline-3,14(4H,12H)-dione], the “relative A549 cytotoxic potency in words” value is given as “most potent compound”.

The series is the same for the next values; noted with them: Homo sapiens, A549, 72 h, read-out: A549 Cytotoxicity IC50 (nM).
With `CC[C@@]1(O)C(=O)OCc2c1cc1n(c2=O)Cc2c-1nc1cc(F)c(C)cc1c2CN1CC(O)C1` [Example 9, (S)-4-ethyl-8-fluoro-4-hydroxy-11-((3-hydroxyazetidin-1-yl)methyl)-9-methyl-1H-pyrano[3′,4′:6,7] indolizino[1,2-b]quinoline-3,14(4H,12H)-dione], the IC50 (in general, the concentration at which inhibition is half-maximal) came to 550 nM.

On to `CC[C@@]1(O)C(=O)OCc2c1cc1n(c2=O)Cc2c-1nc1cc(F)c(C)cc1c2CN1CCC(O)C1` (stereo partly drawn) [Example 2, (4S)-4-ethyl-8-fluoro-4-hydroxy-11-((3-hydroxypyrrolidin-1-yl)methyl)-9-methyl-1H-pyrano[3′,4′:6,7] indolizino[1,2-b]quinoline-3,14(4H,12H)-dione], for which the concentration for half-maximal inhibition (IC50) was 138 nM.

Consider `CC[C@@]1(O)C(=O)OCc2c1cc1n(c2=O)Cc2c-1nc1cc(F)c(C)cc1c2C(C)N1CCC([C@@H](C)O)CC1` (stereo partly drawn) [Example 39, (4S)-4-ethyl-8-fluoro-4-hydroxy-11-(1-(4-((R)-1-hydroxyethyl)piperidin-1-yl)ethyl)-9-methyl-1,12-dihydro-14H-pyrano[3′,4′:6,7] indolizino[1,2-b]quinoline-3,14(4H)-dione], for which the IC50 amounted to 128 nM.

With `CC[C@@]1(O)C(=O)OCc2c1cc1n(c2=O)Cc2c-1nc1cc(F)c(C)cc1c2CN1CCC(CO)CC1` [Example 10, (S)-4-ethyl-8-fluoro-4-hydroxy-11-((4-(hydroxymethyl)piperidin-1-yl)methyl)-9-methyl-1H-pyrano[3′,4′:6,7] indolizino[1,2-b]quinoline-3,14(4H,12H)-dione], the half-inhibitory concentration (IC50) came out at 67 nM.

Regarding `CC[C@@]1(O)C(=O)OCc2c1cc1n(c2=O)Cc2c-1nc1cc(F)c(C)cc1c2CN1CCC([C@@H](C)O)CC1` [Example 15, (S)-4-ethyl-8-fluoro-4-hydroxy-11-((4-((R)-1-hydroxyethyl)piperidin-1-yl)methyl)-9-methyl-1H-pyrano[3′,4′:6,7] indolizino[1,2-b]quinoline-3,14(4H,12H)-dione], the IC50 stood at 17.6 nM.

As for `CC[C@@]1(O)C(=O)OCc2c1cc1n(c2=O)Cc2c-1nc1cc(F)c(C)cc1c2CN1CCCC(O)C1` (stereo partly drawn) [Example 17, (4S)-4-ethyl-8-fluoro-4-hydroxy-11-((3-hydroxypiperidin-1-yl)methyl)-9-methyl-1H-pyrano[3′,4′:6,7] indolizino[1,2-b]quinoline-3,14(4H,12H)-dione], the 50% inhibitory concentration (IC50) turned out to be 38 nM.

Turning to `CC[C@@]1(O)C(=O)OCc2c1cc1n(c2=O)Cc2c-1nc1cc3c(cc1c2CN1CCC([C@@H](C)O)CC1)OCCO3` [Example 36], the IC50 came out at 38.4 nM.

Regarding `CC[C@@]1(O)C(=O)OCc2c1cc1n(c2=O)Cc2c-1nc1cc(F)c(F)cc1c2CN1CCC([C@@H](C)O)CC1` [Example 37, (S)-4-ethyl-8,9-difluoro-4-hydroxy-11-((4-((R)-1-hydroxyethyl)piperidin-1-yl)methyl)-1,12-dihydro-14H-pyrano[3′,4′:6,7] indolizino[1,2-b]quinoline-3,14(4H)-dione], the IC50 worked out at 29 nM.

As for `CC[C@@]1(O)C(=O)OCc2c1cc1n(c2=O)Cc2c-1nc1cc(F)c(C)cc1c2CN1C[C@H]2CC[C@@H](C1)C2O` (stereo partly drawn) [Example 33, (4S)-4-ethyl-8-fluoro-4-hydroxy-11-(((1R,5S)-8-hydroxy-3-azabicyclo[3.2.1]octan-3-yl)methyl)-9-methyl-1H-pyrano[3′,4′:6,7] indolizino[1,2-b]quinoline-3,14(4H,12H)-dione], the IC50 came to 12.9 nM.

`CC[C@@]1(O)C(=O)OCc2c1cc1n(c2=O)Cc2c-1nc1cc(F)c(C)cc1c2CN1CCC(C(O)C(C)C)CC1` (stereo partly drawn) [Example 28, (4S)-4-ethyl-8-fluoro-4-hydroxy-11-((4-(1-hydroxy-2-methylpropyl)piperidin-1-yl)methyl)-9-methyl-1H-pyrano[3′,4′:6,7] indolizino[1,2-b]quinoline-3,14(4H,12H)-dione]: the IC50 came out at 74.2 nM.

On to `CC[C@@]1(O)C(=O)OCc2c1cc1n(c2=O)Cc2c-1nc1cc(F)c(C)cc1c2CN1CCC(C)(CO)C1` (stereo partly drawn) [Example 24, (4S)-4-ethyl-8-fluoro-4-hydroxy-11-((3-(hydroxymethyl)-3-methylpyrrolidin-1-yl)methyl)-9-methyl-1H-pyrano[3′,4′:6,7] indolizino[1,2-b]quinoline-3,14(4H,12H)-dione], for which the IC50 turned out to be 43 nM.

The same series, now with this note: human, 3 days.
On to `CC[C@@]1(O)C(=O)OCc2c1cc1n(c2=O)Cc2c-1nc1cc(F)c(C)cc1c2CN1CCC(CO)CC1` [Example 10, (S)-4-ethyl-8-fluoro-4-hydroxy-11-((4-(hydroxymethyl)piperidin-1-yl)methyl)-9-methyl-1H-pyrano[3′,4′:6,7] indolizino[1,2-b]quinoline-3,14(4H,12H)-dione], for which the “relative A549 cytotoxic potency in words” value was “less potent than Example 17”.
